Experimental findings from paper PMC8949806, “Automated Synthesis of ^68Ga-Labeled DOTA-MGS8 and Preclinical Characterization of Cholecystokinin-2 Receptor Targeting” (Molecules, 2022) are described below.

Structures are written as SMILES. Where a SMILES comes first, the peptide text is derived from it. [ ]: non-standard residue; d: D form. The star is where a group is joined. DOTA = O=C(O)CN1CCN(CC(=O)O)CCN(CC(=O)*)CCN(CC(=O)O)CC1; 1Nal = N[C@@H](Cc1cccc2ccccc12)C(=O)O; NMeNle = CCCC[C@H](NC)C(=O)O

This data set can be described thus: in vivo. As to conditions: female, BALB/c nude, mouse, iv, total radioactivity. Also on record: species or system BALB/c nude mice. On the procedure:
Biodistribution studies were performed in accordance with the ethical standards of the institution and approved by the Austrian Ministry of Science (BMWFW-66.011/0072-V/3b/2019). In vivo studies were carried out in 6–8-week-old female BALB/c nude mice xenografted with A431-CCK2R/A431-mock cells (Charles River, Sulzfeld, Germany; n = 4). For the induction of the tumor xenografts, 150 μL DMEM containing 2 × 10^6 A431-CCK2R and A431-mock cells were injected subcutaneously into the right and left flanks of each mouse. Tumors were allowed to grow for 10–14 days. [^68Ga]Ga-DOTA-MGS8 used in animal studies was prepared as described in the Supplementary Materials (page 2, Figures S1 and S2). To remove any hydrophilic impurities after radiolabeling, the solution was passed through a Sep-Pak® Light C18 cartridge (Waters, Milford, MA) preconditioned with ethanol and physiological saline. [^68Ga]Ga-DOTA-MGS8 was then eluted with 600 µL of a mixture of ethanol and PBS (2/1; v/v) followed by 1100 µL PBS. To this solution, 20 µL of 0.01 M bicarbonate was added for pH adjustment. The final injection solution was diluted with PBS containing 0.5% bovine serum albumin (BSA) to reach an injected radioactivity of ~200 kBq and a total injected peptide amount of ~30 pmol. [^68Ga]Ga-DOTA-MGS8 was administered in 150 µL via a lateral tail vein. The mice were euthanized 1 h p.i. by cervical spine dislocation. […] All organs, including blood and the remaining body, were weighed and their radioactivity was measured using the gamma-counter together with a standard. For the determination of radioactivity in the different tissues, a standard of 10 µL of the injection solution, as well as a 50 µL aliquot of a 1:10 and 1:50 dilution of the injection solution, were measured along with samples taken from the animals. […] The volume injected to each mouse was determined by calculating the difference in weight of the syringe before and after injection. Results were expressed as the percentage of injected activity per gram tissue (% IA/g).

Consider `CCCC[C@@H](C(=O)N[C@@H](CC(=O)O)C(=O)N[C@@H](Cc1cccc2ccccc12)C(N)=O)N(C)C(=O)[C@H](Cc1c[nH]c2ccccc12)NC(=O)CNC(=O)[C@H](Cc1ccc(O)cc1)NC(=O)[C@@H]1CCCN1C(=O)[C@@H](CCC(=O)O)NC(=O)CN1CCN(CC(=O)O)CCN(CC(=O)O)CCN(CC(=O)O)CC1` [[^68Ga]Ga-DOTA-MGS8, metal not drawn] ({DOTA}-[dE]PYGW[NMeNle]D[1Nal]-NH2), for which the tissue to tissue ratio at 1 h runs as follows: (Tumor-to-blood ratio) 13.4 ± 1.77; (Tumor-to-kidney ratio) 4.41 ± 0.4; (Tumor-to-stomach ratio) 11 ± 2.05.
